Measurements taken from patent US6855693B2, “Peptides for activation and inhibition of δPKC” (The Board of Trustees of the Leland Stanford Junior …, priority 2001, dated 2005).
No end group written: not given here.

How the values were obtained:
adult female pigs = assay: In vivo pig cardiac ischemia (30 min LAD balloon occlusion), infarct of area at risk after five days; details: approximately 20 μg Tat-conjugated peptide during last 10 minutes of 30 minute occlusion; five days later
Protocol: In another study in support of the invention, the ability of δV1-1 peptide to protect tissue from damage due to an ischemic or hypoxic event was evaluated by administering the peptide in vivo to adult female pigs. As detailed in Example 5, δV1-1 peptide was administered to the pigs during the last 10 minutes of a 30 minute ischemic insult. Five days later, the hearts were analyzed for tissue damage. Adult female pigs, 35-40 kg in weight, were anesthetized and a catheter was introduced through the carotid artery into the heart. Using conventional intervention cardiology techniques, a wire was placed through a catheter and into the left anterior descending artery. A balloon was run over this wire to a site of occlusion where it was then inflated to block blood flow for 30 minutes. […] From this the percent infarct per area at risk for each slice and for the entire heart was determined.

pigs = assay: Left ventricurogram in pigs, ejection fraction; assay type: in vivo, pig
Protocol: In another study, left ventricurogram was performed in pigs (n=5) at three time points: (1) before occlusion of left anterior descending artery by balloon catheter (pre ischemia); (2) immediately after reperfusion with 2.5 μM/10 mL of δV1-1 (post ischemia); and (3) before sacrifice five days later (5 days post ischemia), using 6 Fr. of pig-tail catheter. LVG was recorded by 2 views, right anterior oblique and left anterior oblique. Ejection fraction (EF), the percent of blood ejected in a beat, during maximum contraction, of the total maximum present in the left ventricle, was analyzed by the software, Plus Plus (Sanders Data Systems), and the averages of two views were evaluated. Ejection fraction is a measure of how well the heart is functioning, with a higher ejection fraction indicative of a better functioning heart.

Sprague-Dawley rats = assay: Rat cerebral ischemia (stroke) model, middle cerebral artery occlusion, infarct area; assay type: in vivo; details: Tat-conjugated δV1-1 into carotid artery prior to ischemia and at end of 2 hour occlusion, final blood concentration 1 μM; brains 24 hrs later
Protocol: In another study performed in support of the invention, the ability of δV1-1 peptide (SEQ ID NO:4) to inhibit damage to the brain as a result of stroke was examined. In this study, described in Example 6, a rat cerebral ischemia model was used. Ischemia was induced using an intraluminal suture to occlude the ostium of the middle cerebral artery. δV1-1 conjugated to Tat peptide (SEQ ID NO:9) or the Tat peptide alone were injected into the carotid artery before and after a two hour occlusion period. The brain from each animal was harvested 24 hours later, stained, and examined.
Adult male Sprague-Dawley rats weighing between 280-320 g were used. Animals were maintained under isofluorane anesthesia during all surgical procedures. Physiological parameters were monitored and maintained in the normal range. Rectal temperature was also measured. At the completion of the experiment, the animals were euthanized with a barbiturate overdose and prepared for histological analysis.
Ischemia was induced using an occluding intraluminal suture. […]
Animals were perfused with heparinized saline and brains removed and sectioned into 2 mm thick slices. […] Areas of infarction (white) were then measured using an image analysis system previously described (Yenari, M. A. et al., 1998; Maier, C. et al., 1998).

Sequence: SFNSYELGSL (also: conjugated to Antennapedia or Tat carrier; listed as Rattus norvegicus) [δV1-1, tested conjugated to Antennapedia or Tat carrier]
- infarct area within the area at risk (heart slices) (adult female pigs): significantly reduced infarct area
- percent of infarct of the area at risk compared with untreated animals (adult female pigs): nearly two-fold lower
- decrease in ejection fraction compared with scrambled peptide control (pigs; reperfusion with 2.5 μM/10 mL of δV1-1, post ischemia): less pronounced decrease
- ejection fraction at five days post ischemia (pigs; reperfusion with 2.5 μM/10 mL of δV1-1, 5 days post ischemia): on par with that measured prior to ischemia and significantly higher than the untreated animals
- brain infarct area (Sprague-Dawley rats): significant reduction
